The results in this text go back to publication PMC6901909, “Synergy Pattern of Short Cationic Antimicrobial Peptides Against Multidrug-Resistant Pseudomonas aeruginosa” (Frontiers in Microbiology, 2019).

≈ marks a conversion by molar mass, not a printed value. Read-outs that look alike come from different tables or passages of the source. Peptide text beside a SMILES is read from it.

Test [1] relates to MDR P. aeruginosa PA 927. Description: microbe, parasite or virus in culture. The format is cell-based, Pseudomonas aeruginosa. The following applies: Pseudomonas aeruginosa; conventional antibiotics; microdilution, Mueller-Hinton broth, 2–5 10^5 CFU/ml, 18 h at 37°C, read visually; at least three repeats (n = 3). In outline: (§1)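 Inoculum 2–5 10^5 CFU/ml in Mueller-Hinton broth, compounds twofold serially diluted, polypropylene microtiter plates. Strains are MDR isolates from clinical and municipal waste water.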

For test [2], the system named is MDR P. aeruginosa PA253. Description: microbe, parasite or virus in culture. The format is cell-based, Pseudomonas aeruginosa. The note with it: microdilution, Mueller-Hinton broth, 18 h at 37°C, read visually; for MIC: Pseudomonas aeruginosa, conventional antibiotics, 2–5 10^5 CFU/ml, at least three repeats (n = 3). The gist of the method: as §1
Background: Dilution methods test growth across graded concentrations, often in twofold steps.

Test [3] relates to MDR P. aeruginosa PA 915. Description: microbe, parasite or virus in culture. The following applies: Pseudomonas aeruginosa; conventional antibiotics; microdilution, Mueller-Hinton broth, 2–5 10^5 CFU/ml, 18 h at 37°C, read visually; at least three repeats (n = 3). The format is cell-based, Pseudomonas aeruginosa. The gist of the method:
as §1

Test [4] relates to MDR P. aeruginosa PA 910. Description: microbe, parasite or virus in culture. The format is cell-based, Pseudomonas aeruginosa. The following applies: for MIC: Pseudomonas aeruginosa. The gist of the method: as §1
In test [5] the test system is P. aeruginosa PA01-wt. Description: microbe, parasite or virus in culture. The format is cell-based, Pseudomonas aeruginosa. The note with it: microdilution, Mueller-Hinton broth, 18 h at 37°C, read visually; for MIC: Pseudomonas aeruginosa, PA01WT, conventional antibiotics, 2–5 10^5 CFU/ml, at least three repeats (n = 3).
Test [6] concerns MDR P. aeruginosa PA 923. Description: microbe, parasite or virus in culture. The following applies: Pseudomonas aeruginosa; conventional antibiotics; microdilution, Mueller-Hinton broth, 2–5 10^5 CFU/ml, 18 h at 37°C, read visually; at least three repeats (n = 3). The format is cell-based, Pseudomonas aeruginosa. In outline:
as §1

Test [7] has as its system MDR P. aeruginosa PA 919. The experiment in a line: microbe, parasite or virus in culture. The following applies: microdilution, Mueller-Hinton broth, 18 h at 37°C, read visually; for MIC: Pseudomonas aeruginosa, conventional antibiotics, 2–5 10^5 CFU/ml, at least three repeats (n = 3). The format is cell-based, Pseudomonas aeruginosa. In outline:
as §1

For test [8], the system named is MDR-PA253. The format is cell-based, Pseudomonas aeruginosa. The note with it: peptide + polymyxin B; checkerboard; strain comparison (Table 7). The protocol: (§2) The checkerboard assay was used to determine the fractional inhibitory concentrations (FICs), following the protocol described in Koneman’s Color Atlas and Textbook of Diagnostic Microbiology ([Winn et al., 2006]). Briefly, combinations of peptides and antibiotics were prepared in 96-well plates (polypropylene, Corning) in a twofold dilution series. After the addition of a log-phase bacterial inoculum of 2–5 × 10^5 CFU/ml, plates were incubated at 37°C for 18 h. The FICs were determined by visual inspection and the effects of the combinations were determined using the FICs. The FIC was computed by adding two partial FIC values, FICA—the MIC of drug A, tested in combination with drug B divided by the MIC of drug A, tested alone and FICB—the MIC of drug B, tested in combination with drug A divided by the MIC of drug B, tested alone [FIC = FICA + FICB = (MICAB/MICA) + (MICBA/MICB), where MICA and MICB are the MICs of drugs A and B alone, respectively, and MICAB and MICBA are the MIC concentrations of the drugs in combination]. […]

Test [9] has as its system MDR-PA919. The format is cell-based, Pseudomonas aeruginosa. The following applies: peptide + polymyxin B; checkerboard; strain comparison (Table 7). The protocol: as §2
Test [10] has as its system MDR isolate of P. aeruginosa (PA 910). The note with it: checkerboard, MHb. How it is done:
The checkerboard assay was used to determine the fractional inhibitory concentrations (FICs), following the protocol described in Koneman’s Color Atlas and Textbook of Diagnostic Microbiology ([Winn et al., 2006]). Briefly, combinations of peptides and antibiotics were prepared in 96-well plates (polypropylene, Corning) in a twofold dilution series. After the addition of a log-phase bacterial inoculum of 2–5 × 10^5 CFU/ml, plates were incubated at 37°C for 18 h. The FICs were determined by visual inspection and the effects of the combinations were determined using the FICs. The FIC was computed by adding two partial FIC values, FICA—the MIC of drug A, tested in combination with drug B divided by the MIC of drug A, tested alone and FICB—the MIC of drug B, tested in combination with drug A divided by the MIC of drug B, tested alone [FIC = FICA + FICB = (MICAB/MICA) + (MICBA/MICB), where MICA and MICB are the MICs of drugs A and B alone, respectively, and MICAB and MICBA are the MIC concentrations of the drugs in combination]. Here we use the European Committee for Antimicrobial Susceptibility Testing (EUCAST) definition, which is very similar to the definition provided by [Odds, 2003], except Odds define additive effects when FIC values are between 0.5 and 1 ([European Committee for Antimicrobial Susceptibility Testing [EUCAST] of the European Society of Clinical Microbiology and Infectious Diseases [ESCMID], 2000]; [Odds, 2003]). The combination of peptide (drug A) and antibiotics (drug B) was defined as synergistic if the FIC was ≤ 0.5, indifferent if the FIC was > 0.5 but ≤ 4.0 and antagonistic if the FIC was > 4.0.

[11] abbreviates: 18 h, antibiotic alone, as listed in the FIC table, read-out: MIC against PA910 in μM (antibiotics, head of Table 4).
Where [12] appears, read: conventional antibiotics, microdilution, Mueller-Hinton broth, 2–5 10^5 CFU/ml, 18 h at 37°C, read visually, at least three repeats (n = 3), read-out: MIC PA 910.

`CNC(C)C1CCC(N)C(OC2C(N)CC(N)C(OC3OCC(C)(O)C(NC)C3O)C2O)O1` (centres unmarked) [Gentamycin]: the MIC in test [1] is 128 µM (≈ 61.1 µg/mL); in test [2], greater than 256 µM; in test [3], 128 to 256 µM (≈ 61.1 to 122 µg/mL); in [4] (setting [11]) it was 128 µM; in [4] (setting [12]), 128 µM (≈ 61.1 µg/mL); in [5], 1 µM (≈ 0.478 µg/mL). Besides, the MIC in test [6] and in [7] was 128 µM (≈ 61.1 µg/mL) throughout.
Regarding `C[C@@H](O)[C@H]1C(=O)N2C(C(=O)O)=C(SCCN=CN)C[C@H]12` [Imipenem], the MIC in test [1] is greater than 128 µM; in [2], greater than 128 µM; in [3] it was greater than 128 µM; in test [4] (setting [11]), greater than 128 µM; in [4] (setting [12]), greater than 128 µM; in [5], 2 µM (≈ 0.599 µg/mL). The MIC was greater than 128 µM in test [6] and 16 µM (≈ 4.79 µg/mL) in test [7].
As to `C[C@@H](O)[C@H]1C(=O)N2C(C(=O)O)=C(S[C@@H]3CN[C@H](C(=O)N(C)C)C3)[C@H](C)[C@H]12` [Meropenem], the MIC is greater than 128 µM in test [1]; greater than 128 µM in test [2]; greater than 128 µM in test [3]; greater than 128 µM in test [4] (setting [11]); greater than 128 µM in [4] (setting [12]); 2 to 4 µM (≈ 0.767 to 1.53 µg/mL) in [5]. Further, the MIC in test [6] and in test [7] was greater than 128 µM throughout.
`CC[C@H](C)[C@H](NC(=O)[C@H](CCCNC(=N)N)NC(=O)[C@H](C)NC(=O)[C@H](CC(C)C)NC(=O)[C@@H](N)CCCNC(=N)N)C(=O)N[C@H](C(=O)N[C@H](C(=O)N[C@H](C(=O)N[C@@H](CCCNC(=N)N)C(=O)N[C@H](C(=O)N[C@@H](CCCNC(=N)N)C(=O)N[C@@H](CCCNC(=N)N)C(N)=O)C(C)C)[C@@H](C)CC)C(C)C)C(C)C` [Peptide R11] (H-RLARIVVIRVRR-NH2): the “MIC against MDR isolates of PA, PA253” value in [2] (short AMPs, triplicate (n = 3)) stood at 64 µM. The “MIC against PA910 in μM (peptides, Table 4)” value in [4] (peptide alone, as listed in the FIC table) is 64 µM. Besides, the “MIC against PA01 wt” value in [5] (short AMPs, triplicate (n = 3)) stood at 16 µM (≈ 24.1 µg/mL). For the same compound, in test [7] (short AMPs, triplicate (n = 3)), the “MIC against MDR isolates of PA, PA919” value stood at 32 µM. Besides, the “FIC against polymyxin B, MDR-PA253” value in test [8] is reported as 0.56. Also, the “FIC against polymyxin B, MDR-PA919” value in test [9] is reported as 0.56. Further, in [10] (confirmation study, peptide + kanamycin, Indopt versions 1/8 MHb, mean of at least three measurements (n = 3), SD in brackets), the “FIC mean (SD), combination with KAN” value is on record as 0.75 (0.17). Moreover, the “FIC mean (SD), combination with TET” value in test [10] (confirmation study, peptide + tetracycline, Indopt versions 1/8 MHb, mean of at least three measurements (n = 3), SD in brackets) is 0.43 (0.12). Also, the “FIC, combination with AMI” value in [10] (peptide + amikacin, for the Indopt versions 1/8 MHb, 2–5 × 10^5 CFU/ml, 37°C, 18 h, visual, determined once (n = 1)) is reported as 2. The “FIC, combination with CEF” value in test [10] (peptide + cefepime, for the Indopt versions 1/8 MHb, 2–5 × 10^5 CFU/ml, 37°C, 18 h, visual, determined once (n = 1)) was found to be 2. Moreover, in [10] (peptide + ceftazidime, for the Indopt versions 1/8 MHb, 2–5 × 10^5 CFU/ml, 37°C, 18 h, visual, determined once (n = 1)), the “FIC, combination with CET” value is 1. In addition, the “FIC, combination with CIP” value in test [10] (peptide + ciprofloxacin, for the Indopt versions 1/8 MHb, 2–5 × 10^5 CFU/ml, 37°C, 18 h, visual, determined once (n = 1)) is given as 0.53. In addition, the “FIC, combination with ERY” value in test [10] (peptide + erythromycin, for the Indopt versions 1/8 MHb, 2–5 × 10^5 CFU/ml, 37°C, 18 h, visual, determined once (n = 1)) is reported as 0.53. Besides, the “FIC, combination with IMI” value in test [10] (peptide + imipenem, for the Indopt versions 1/8 MHb, 2–5 × 10^5 CFU/ml, 37°C, 18 h, visual, determined once (n = 1)) stood at 0.63. Also, the “FIC, combination with KAN” value in test [10] (peptide + kanamycin, for the Indopt versions 1/8 MHb, 2–5 × 10^5 CFU/ml, 37°C, 18 h, visual, determined once (n = 1)) is given as 0.5. The “FIC, combination with MER” value in test [10] (peptide + meropenem, for the Indopt versions 1/8 MHb, 2–5 × 10^5 CFU/ml, 37°C, 18 h, visual, determined once (n = 1)) is listed as 0.51. Besides, the “FIC, combination with PIP” value in [10] (peptide + piperacillin, for the Indopt versions 1/8 MHb, 2–5 × 10^5 CFU/ml, 37°C, 18 h, visual, determined once (n = 1)) is reported as 1. In test [10] (peptide + polymyxin B, for the Indopt versions 1/8 MHb, 2–5 × 10^5 CFU/ml, 37°C, 18 h, visual, determined once (n = 1)), the “FIC, combination with PMB” value worked out at 0.63. Moreover, the “FIC, combination with TET” value in test [10] (peptide + tetracycline, for the Indopt versions 1/8 MHb, 2–5 × 10^5 CFU/ml, 37°C, 18 h, visual, determined once (n = 1)) is reported as 0.53. The “FIC, combination with TOB” value in test [10] (peptide + tobramycin, for the Indopt versions 1/8 MHb, 2–5 × 10^5 CFU/ml, 37°C, 18 h, visual, determined once (n = 1)) came out at 2.
